From US10793559B2, “Chemical compounds” (GlaxoSmithKline Intellectual Property Development Limited, priority 2016, dated 2020)
Structures can show the parent of a compound that is named as a salt.

test system: amphetamine-induced psychosis; test: not given; settings: Law et al. 2012; cited from earlier work

SMILES | efficacy in a mouse model of amphetamine-induced psychosis
Cc1ccccc1-n1c(Cn2cnc3c(N)ncnc32)nc2cccc(C)c2c1=O [IC87114] | remarkable efficacy

target: PI3K-Delta (Homo sapiens, UniProt O00329); test: PI3K HTRF assay (PI3K Delta); assay type: biochemical; settings: PI3K-Delta 1.5 nM, 80 μM ATP, 10 μM PIP2 final, read-out: mean pIC50 in the PI3K Delta assay (converted)
Sequence (O00329 whole entry): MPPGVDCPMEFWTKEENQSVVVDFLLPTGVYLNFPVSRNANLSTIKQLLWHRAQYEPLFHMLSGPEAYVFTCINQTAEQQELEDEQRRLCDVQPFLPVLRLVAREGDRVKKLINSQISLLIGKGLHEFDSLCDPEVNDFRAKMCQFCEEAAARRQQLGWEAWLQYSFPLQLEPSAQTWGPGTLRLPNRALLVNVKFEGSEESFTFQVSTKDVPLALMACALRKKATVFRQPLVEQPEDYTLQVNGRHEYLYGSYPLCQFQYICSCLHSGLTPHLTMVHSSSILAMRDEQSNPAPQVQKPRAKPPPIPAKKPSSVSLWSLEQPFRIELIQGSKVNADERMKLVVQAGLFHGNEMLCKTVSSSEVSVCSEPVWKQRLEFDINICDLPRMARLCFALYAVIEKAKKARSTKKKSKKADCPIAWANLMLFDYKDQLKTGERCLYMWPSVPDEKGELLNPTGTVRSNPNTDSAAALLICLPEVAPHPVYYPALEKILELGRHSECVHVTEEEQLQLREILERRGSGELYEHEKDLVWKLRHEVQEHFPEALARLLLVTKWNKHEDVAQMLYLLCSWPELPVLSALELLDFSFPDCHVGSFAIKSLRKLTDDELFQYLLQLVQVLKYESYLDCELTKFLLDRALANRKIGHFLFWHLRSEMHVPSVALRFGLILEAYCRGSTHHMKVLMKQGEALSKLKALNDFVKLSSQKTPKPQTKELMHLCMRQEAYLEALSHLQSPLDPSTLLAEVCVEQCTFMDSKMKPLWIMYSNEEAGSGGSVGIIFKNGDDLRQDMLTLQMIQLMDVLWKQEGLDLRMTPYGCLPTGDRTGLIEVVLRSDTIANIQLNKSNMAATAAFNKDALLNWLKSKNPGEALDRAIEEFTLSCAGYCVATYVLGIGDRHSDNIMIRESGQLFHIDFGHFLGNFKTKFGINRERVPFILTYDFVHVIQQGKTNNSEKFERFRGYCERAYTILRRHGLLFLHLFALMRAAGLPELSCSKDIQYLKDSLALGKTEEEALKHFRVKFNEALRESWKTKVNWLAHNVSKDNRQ
Sequence (P27986 whole entry partner): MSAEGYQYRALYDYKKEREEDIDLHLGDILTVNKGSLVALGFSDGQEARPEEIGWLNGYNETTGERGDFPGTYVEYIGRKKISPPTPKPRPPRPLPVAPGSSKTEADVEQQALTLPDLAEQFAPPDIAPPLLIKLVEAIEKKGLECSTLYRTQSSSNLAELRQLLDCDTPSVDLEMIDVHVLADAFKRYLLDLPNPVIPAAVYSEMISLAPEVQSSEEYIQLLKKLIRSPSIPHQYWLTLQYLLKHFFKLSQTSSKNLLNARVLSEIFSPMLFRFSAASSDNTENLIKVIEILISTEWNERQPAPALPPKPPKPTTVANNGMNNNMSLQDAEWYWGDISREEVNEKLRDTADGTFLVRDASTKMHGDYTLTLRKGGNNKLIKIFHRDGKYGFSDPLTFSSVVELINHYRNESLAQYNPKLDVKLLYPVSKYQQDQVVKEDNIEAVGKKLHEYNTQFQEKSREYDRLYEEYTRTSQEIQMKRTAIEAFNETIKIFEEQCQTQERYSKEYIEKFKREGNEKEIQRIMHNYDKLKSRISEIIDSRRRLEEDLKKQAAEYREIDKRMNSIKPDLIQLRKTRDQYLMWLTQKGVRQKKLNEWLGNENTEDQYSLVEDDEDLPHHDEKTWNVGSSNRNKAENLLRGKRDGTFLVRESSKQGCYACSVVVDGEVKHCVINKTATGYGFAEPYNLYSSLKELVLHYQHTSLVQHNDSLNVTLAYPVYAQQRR
Method: Biological Data PI3K HTRF Assay
The binding of compounds to PI3K-alpha/beta/delta/gamma is determined by homogeneous time resolved fluorescence (HTRF) assays as follows;
Briefly, solid compound is dissolved in 100% DMSO at a concentration of 2 mM. Dilutions are prepared in 100% DMSO using a 1 in 4 serial step dilution. The dilutions are transferred to black low volume Greiner assay plates ensuring that the DMSO concentration is constant across the plate at 1% (0.1 ul/well).
PI3K Reaction Buffer (contains 50 mM HEPES pH7.0 (NaOH), 150 mM NaCl, 10 mM MgCl2, 2.3 mM sodium cholate, 10 μM CHAPS made up in milliQ water). Fresh DTT is added at a final concentration of 1 mM on the day of use. Wortmannin at a concentration sufficient to produce 100% inhibition (8.33e-6 M) is added to column 18 of compound plates.
Enzyme solutions: 1× PI3K assay Buffer containing: • 550 pM PI3K-Alpha enzyme (275 pM final assay concentration) • 800 pM PI3K-Beta enzyme (400 pM final assay concentration) • 3 nM PI3K-Delta enzyme (1.5 nM final assay concentration) • 10 nM PI3K-Gamma enzyme (5 nM final assay concentration)
These concentrations are optimal to achieve a signal:background of between 1.5-4.5. The enzyme solution is added to columns 1-24 (3 ul/well) and plates are incubated for 15 minutes at room temperature.
Substrate solution: 1× PI3K assay buffer containing: • PI3K-Alpha: 500 μM ATP, 20 μM PIP2 and 120 nM biotin-PIP3. (Final assay concentrations are 250 μM ATP, 10 μM PIP2 (both at Km) and 40 nM biotin-PIP3) • PI3K-Beta: 800 μM ATP, 20 μM PIP2 and 120 nM biotin-PIP3. (Final assay concentrations are 400 μM ATP, 10 μM PIP2 (both at Km) and 40 nM biotin-PIP3) • PI3K-Delta: […], 20 μM PIP2 and 120 nM biotin-PIP3. (Final assay concentrations are 80 μM ATP, 10 μM PIP2 (both at Km) and 40 nM biotin-PIP3) • PI3K-Gamma: 30 μM ATP, 20 μM PIP2 and 120 nM biotin-PIP3.
This is added to all wells and plates are incubated for 1 hour at room temperature.
Detection solution: PI3K Detection Buffer (contains 50 mM HEPES pH7.0 (HCl), 150 mM NaCl, 2.3 mM sodium cholate, 10 μM CHAPS, 240 mM potassium fluoride) containing 2 mM DTT (2× final concentration), 90 nM GRP-1 PH domain, 300 nM Streptavidin-APC and 24 nM Europium-anti-GST (6× final concentrations)
This is mixed left at room temperature (protected from light).
STOP solution: PI3K STOP Buffer (contains 50 mM HEPES pH7.0 (HCl), 150 mM NaCl, 2.3 mM sodium cholate, 10 μM CHAPS, 150 mM EDTA).
Detection solution is diluted 1:1 with STOP solution and added to all wells (3 ul/well). Plates are covered and incubated on the bench for 45-60 minutes. Plates are read on a PerkinElmer Envision, measuring TR-FRET between the complex formed between the GST-tagged PH domain and biotinylated PIP3 which both recruit fluorophores (Europium-labelled anti-GST & Strep-APC respectively). […], this complex is disrupted by the competitive action of non-biotinylated PIP3 (formed in the assay by the phosphorylation of PIP2 by the kinase & ATP). From this, the ratio of acceptor/donor was calculated (Aex=317 nm, Aem donor=615 nm, em acceptor=665 nm) and used for data analysis.

IC50 | SMILES
≤ 3.16 nM | COCCN1CCN(Cc2ccc(-c3cc(NS(=O)(=O)c4cc(N5CCOCC5)cnc4OC)ccn3)c(F)c2)CC1 [Example 18, N-(2-(2-Fluoro-4-((4-(2-methoxyethyl)piperazin-1-yl)methyl)phenyl)pyridin-4-yl)-2-methoxy-5-morpholinopyridine-3-sulfonamide, 1.2 formic acid salt]
≤ 3.16 nM | COc1ncc(N2CCOCC2)cc1S(=O)(=O)Nc1ccnc(-c2ccc(CN3CCC(C)C3)cc2F)c1 (stereo not shown) [Example 19, N-(2-(2-fluoro-4-((3-methylpyrrolidin-1-yl)methyl)phenyl)pyridin-4-yl)-2-methoxy-5-morpholinopyridine-3-sulfonamide]
≤ 3.16 nM | COc1ncc(N2CCOCC2)cc1S(=O)(=O)Nc1ccnc(-c2ccc(CN3CCCCC3)cc2F)c1 [Example 21, N-(2-(2-fluoro-4-(piperidin-1-ylmethyl)phenyl)pyridin-4-yl)-2-methoxy-5-morpholinopyridine-3-sulfonamide]
≤ 3.16 nM | COc1ncc(N2CCOCC2)cc1S(=O)(=O)Nc1ccnc(-c2ccc(CN3CCC(C(C)(C)O)CC3)cc2F)c1 [Example 22]
≤ 3.16 nM | COc1ncc(N2CCOCC2)cc1S(=O)(=O)Nc1ccnc(-c2ccc(CN3C[C@@H](C)O[C@@H](C)C3)cc2)c1 [Example 23, N-(2-(4-(((cis)-2,6-Dimethylmorpholino)methyl)phenyl)pyridin-4-yl)-2-methoxy-5-morpholinopyridine-3-sulfonamide]
≤ 3.16 nM | COc1ncc(N2CCOCC2)cc1S(=O)(=O)Nc1ccnc(-c2ccc(CN3CCOCC3)cc2)c1 [Example 24, 2-Methoxy-5-morpholino-N-(2-(4-(morpholinomethyl)phenyl)pyridin-4-yl)pyridine-3-sulfonamide]
≤ 3.16 nM | COc1ncc(N2CCOCC2)cc1S(=O)(=O)Nc1ccnc(-c2ccc(CN3CCNCC3)cc2F)c1 [Example 25, N-(2-(2-Fluoro-4-(piperazin-1-ylmethyl)phenyl)pyridin-4-yl)-2-methoxy-5-morpholinopyridine-3-sulfonamide]
≤ 3.16 nM | CC(C)N1CCN(Cc2ccc(-c3cc(NS(=O)(=O)c4cc(N5CCOCC5)cnc4N(C)C)ccn3)c(F)c2)CC1 [Example 26, 2-(Dimethylamino)-N-(2-(2-fluoro-4-((4-isopropylpiperazin-1-yl)methyl)phenyl)pyridin-4-yl)-5-morpholinopyridine-3-sulfonamide]
≤ 3.16 nM | CN(C)c1ncc(N2CCOCC2)cc1S(=O)(=O)Nc1ccnc(-c2ccc(CN3CCN(C(C)(C)C)CC3)cc2F)c1 [Example 27, N-(2-(4-((4-(tert-Butyl)piperazin-1-yl)methyl)-2-fluorophenyl)pyridin-4-yl)-2-(dimethylamino)-5-morpholinopyridine-3-sulfonamide]
≤ 3.16 nM | COc1ncc(N2CCOCC2)cc1S(=O)(=O)Nc1ccnc(-c2cc(Cl)c(CN3CCN(C(C)C)CC3)cc2F)c1 [Example 35, N-(2-(5-Chloro-2-fluoro-4-((4-isopropylpiperazin-1-yl)methyl)phenyl)pyridin-4-yl)-2-methoxy-5-morpholinopyridine-3-sulfonamide]
≤ 3.16 nM | COc1ncc(N2CCOCC2)cc1S(=O)(=O)Nc1ccnc(-c2ccc(CN3C[C@@H](C)O[C@@H](C)C3)cc2F)c1 [Example 36, Rac-N-(2-(4-(((2S,6R)-2,6-dimethylmorpholino)methyl)-2-fluorophenyl)pyridin-4-yl)-2-methoxy-5-morpholinopyridine-3-sulfonamide]
≤ 3.16 nM | CCOc1ncc(N2CCOCC2)cc1S(=O)(=O)Nc1ccnc(-c2ccc(CN3C[C@@H](C)O[C@@H](C)C3)cc2F)c1 [Example 37, Rac-N-(2-(4-(((2S,6R)-2,6-dimethylmorpholino)methyl)-2-fluorophenyl)pyridin-4-yl)-2-ethoxy-5-morpholinopyridine-3-sulfonamide]
